In EP0441252B1, “Alkaline phosphatase enzymes having improved specific activity for use in indicator reagents” (ABBOTT LABORATORIES, priority 1990, dated 1991):

Columns and labels:
Assay in all cases: Kinetic constants (Km) of purified alkaline phosphatase
[1] = biological target: E. coli alkaline phosphatase variant pMA115, Asp^101 > Ser (Escherichia coli, UniProt P00634, D123S, form not given); details: Table 1; substrate not given
[2] = biological target: E. coli alkaline phosphatase variant pMA116, Lys^328 > Arg / Val^99 > Ala (Escherichia coli, UniProt P00634, form not given/K350R/V121A); details: Table 1; substrate not given
Sequence of E. coli alkaline phosphatase variant pMA116, Lys^328 > Arg / Val^99 > Ala (P00634 22-471 K350R/V121A): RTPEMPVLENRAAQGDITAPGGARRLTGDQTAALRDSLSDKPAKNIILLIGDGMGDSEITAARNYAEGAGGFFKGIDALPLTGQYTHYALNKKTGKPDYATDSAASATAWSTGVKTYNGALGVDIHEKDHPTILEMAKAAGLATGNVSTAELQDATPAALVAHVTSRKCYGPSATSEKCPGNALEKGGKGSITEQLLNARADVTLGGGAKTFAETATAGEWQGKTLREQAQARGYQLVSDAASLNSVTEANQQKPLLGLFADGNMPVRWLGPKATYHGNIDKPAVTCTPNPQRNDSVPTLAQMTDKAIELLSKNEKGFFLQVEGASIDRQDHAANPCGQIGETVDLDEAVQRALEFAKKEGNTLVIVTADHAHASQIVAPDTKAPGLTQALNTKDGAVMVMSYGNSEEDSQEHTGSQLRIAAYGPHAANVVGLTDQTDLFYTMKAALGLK

[3] = tested on: O=[N+]([O-])c1ccc(OP(=O)(O)O)cc1; type: biochemical, E. coli; details: other: Table 1; substrate not given; pH 8.0; 25.0 °C

Sequence of E. coli alkaline phosphatase variant pMA115, Asp^101 > Ser (P00634 22-471 D123S): as the sequence (P00634 22-471 K350R/V121A) above, with A100V, D102S, R329K counted along it

Molecule	Km [1]	Km [2]	Km [3]
O=[N+]([O-])c1ccc(OP(=O)(O)O)cc1 [pNPP, p-nitrophenyl phosphate]	56 µM	74 µM	–
E. coli alkaline phosphatase variant pMA110, Val^377 > Ala / Ser^415 > Gly (Escherichia coli K-12; S437G/V399A)	–	–	23 µM
